In patent US20060122153A1, “Antineoplastic ether lipid compounds with modifications at the sn-2 carbon” (priority 2003, published 2006):
Entries after “also recorded” stand apart in the source; their conditions may differ.

Key:
[1] = system: DEVDase activity (Caspase 3) in U937 cell line; test: DEVDase activity in U937 cell line; format: cell-based, human
Protocol: Suspension cells were seeded at density 3.2×10^5 cells per mL in RPMI-1640 medium (Bio-Whittaker) supplemented with 10% heat inactivated FBS (Bio-Whittaker). Cells were pre-incubated overnight prior to treatment with the ether lipid compounds of the invention. At treatment time cell density was 5×10^5 cells per mL. Cells were incubated with the ether lipid compounds of the invention for various periods of time, usually 6 hours. Cells were collected, washed with 1×DPBS and resuspended in 110 μl of Buffer A (10 mM BEPES-KOH, pH 7.4, 2 mM EDTA, 0.1% CHAPS, 5 mM DTT, 1:100 dilution of protease inhibitors cocktail (Sigma)-DTT and protease inhibitors should be added just before use). […]
Measurement of DEVDase activity was carried out in 100 μl volume, where 10 μg of protein was delivered in 50 μl of Buffer A and 40 μM of substrate Ac-DEVD-AMC was also delivered in 50 μl of Buffer A. All measurements were done in triplicates. Reaction was carried out for 1 hour and generation of fluorescent product of reaction (aminomethylcoumarin) was measured by reading fluorescence at 1em 460 nm (1ex 360 nm). Changes in DEVDase activity were calculated after subtraction of background fluorescence of substrate incubated without proteins, and were expressed as percent of control (DEVDase activity in untreated cells). […]

SF-268 = test: NCI growth inhibition screen, CNS panel; format: cell-based, human; design: key: = means equivalent activity; + means that it appears to be significantly better (i.e., by ˜2x); < means it appears to be less active than ET18OCH3 (˜2x); a combination like =/+ or </+ means that activity is dependent upon the isomer; a combination like =/+ or </+ means that activity is dependent upon the isomer; details: SF-268, CNS; from GI50s
Protocol: (§1) Candidates deemed suitable for in vivo testing were then synthesized in large scale quantities and some of this material was sent to the NCI's Developmental Therapeutics Program for a battery of growth inhibitory studies against various human tumor cell lines (60 cell lines, 9 different panels). The remainder of the material was used to assess in vivo efficacy using murine tumor models. Additionally, studies were conducted on the lead candidates to discern mechanism of action with particular emphasis on these agents apoptotic ability as measured by caspase 3 activity. The details (materials and methods) for these various assays are described further in the following discussion.
(§2) Ten compounds were also sent to NCI's Drug Discovery Program for screening against numerous human tumor cell lines (9 panels total: renal ovarian, colon, CNS, non-small cell lung, leukemia, breast, melanoma, and prostate). The data are shown in FIGS. 2a-i which also include data regarding D- and L-ET-18-OCH3 (listed as L-EL and D-EL in the figures). Upon examining the data, one is struck by how 1R and 1a′S standout in comparison to the other compounds, especially for the renal, ovarian, colon, and CNS panels.

NCI-H226 = test: NCI growth inhibition screen, non-small cell lung panel; format: cell-based, human; design: key to Performance as compared to ET-18-O—CH3: = means equivalent activity; + means that it appears to be significantly better (i.e., by ˜2x); < means it appears to be less active than ET18OCH3 (˜2x); a combination like =/+ or </+ means that activity is dependent upon the isomer; a combination like =/+ or </+ means that activity is dependent upon the isomer; details: for Performance as compared to ET-18-O—CH3: NCI-H226, NS cell lung, from GI50s; for activity compared to ET-18-OCH3 (in words): NCI-H226 cell line, NCI screen
Protocol: as §1, §2

HS 578T = test: NCI growth inhibition screen, breast panel; format: cell-based, human; design: key: = means equivalent activity; + means that it appears to be significantly better (i.e., by ˜2x); < means it appears to be less active than ET18OCH3 (˜2x); a combination like =/+ or </+ means that activity is dependent upon the isomer; a combination like =/+ or </+ means that activity is dependent upon the isomer; details: from GI50s
Protocol: as §1, §2

MDA-MB-231/ATCC = test: NCI growth inhibition screen, breast panel; format: cell-based, human; design: key: = means equivalent activity; + means that it appears to be significantly better (i.e., by ˜2x); < means it appears to be less active than ET18OCH3 (˜2x); a combination like =/+ or </+ means that activity is dependent upon the isomer; a combination like =/+ or </+ means that activity is dependent upon the isomer; details: from GI50s
Protocol: as §1, §2

MDA-MB-435 = test: NCI growth inhibition screen, breast panel; format: cell-based, human; design: key: = means equivalent activity; + means that it appears to be significantly better (i.e., by ˜2x); < means it appears to be less active than ET18OCH3 (˜2x); a combination like =/+ or </+ means that activity is dependent upon the isomer; a combination like =/+ or </+ means that activity is dependent upon the isomer; details: MDA-MB-435, Breast; from GI50s
Protocol: as §1, §2

MDA-N = test: NCI growth inhibition screen, breast panel; format: cell-based, human; design: key: = means equivalent activity; + means that it appears to be significantly better (i.e., by ˜2x); < means it appears to be less active than ET18OCH3 (˜2x); a combination like =/+ or </+ means that activity is dependent upon the isomer; a combination like =/+ or </+ means that activity is dependent upon the isomer; details: from GI50s
Protocol: as §1, §2

NCI/ADR-RES = test: NCI growth inhibition screen, breast panel; format: cell-based, human; design: key: = means equivalent activity; + means that it appears to be significantly better (i.e., by ˜2x); < means it appears to be less active than ET18OCH3 (˜2x); a combination like =/+ or </+ means that activity is dependent upon the isomer; a combination like =/+ or </+ means that activity is dependent upon the isomer; details: from GI50s
Protocol: as §1, §2

[2] = system: platelets in dog whole blood
Protocol: Briefly, whole citrated blood is diluted 1:2 with sterile saline and placed in a warm chamber with a mini stir bar. An electronic probe, measuring electrical resistance, is inserted in the sample. The aggregometer is calibrated and the baseline is observed to detect any spontaneous aggregation. The test sample is added and allowed to run for at least 6 minutes. If the sample is an agonist the platelets will start to aggregate and stick to the electronic probe causing resistance across the electrodes to increase. This resistance, in ohms, is measured 6 minutes post addition of sample. The test samples are run at 25, 100, 200, 400 and 800 uM and compared to 100 uM L-ET-18-OCH3.
Collection of Blood Sample for in vitro Platelet Aggregation Testing: Venous blood is collected in 4.5 mL Vacutainer tubes containing 0.129 M sodium citrate using a 21G needle or larger. Blood is immediately mixed by gentle inversion 15-20 times and kept at room temperature. Dilution ratio is 1 to 9 (3.8% citrate solution:blood). One (2.0 mL) Vacutainer tube containing EDTA is also collected for platelet counts. Complete blood counts (CBC) are measured on the CDC Technologies Hemavet 1500 to ensure that the test subject's platelets are within normal range. Amy vials of hemolytic blood or blood containing any clots should be discarded. Platelet aggregation testing must be completed within 3 hours of blood collection. After this time the ability of platelets to aggregate decreases.
Dilutions were prepared in PBS or saline at 40× concentration. (25 uL test sample are added to 1000 uL diluted blood (1:40)).

SMILES | DEVDase activity compared to ET-18-OCH3 (in words) [1] | Performance as compared to ET-18-O—CH3 (SF-268) | Performance as compared to ET-18-O—CH3 (NCI-H226) | activity compared to ET-18-OCH3 (in words) (NCI-H226) | Performance as compared to ET-18-O—CH3 (HS 578T) | Performance as compared to ET-18-O—CH3 (MDA-MB-231/ATCC) | Performance as compared to ET-18-O—CH3 (MDA-MB-435) | Performance as compared to ET-18-O—CH3 (MDA-N) | Performance as compared to ET-18-O—CH3 (NCI/ADR-RES) | Platelet aggregation [2] | platelet aggregation response (in words) [2]
CCCCCCCCCCCCCCCCCCOC[C@@H](COP(=O)([O-])OCC[N+](C)(C)C)OS(C)(=O)=O [1a′S] | equivalent to ET-18-OCH3; also recorded: more active than 1aR | 0 | 32 | significantly better than ET-18-OCH3 | 0 | 0 | 0 | 0 | 0 |  | 
CCCCCCCCCCCCCCCCCCOCC(COP(=O)([O-])OCC[N+](C)(C)C)OS(C)(=O)=O (centres unmarked) [Compound 1aR] | equivalent to ET-18-OCH3 | = | + | significantly better than ET-18-OCH3 | = | = | = | = | = |  | 
CCCCCCCCCCCCCCCCCCOCC(COP(=O)([O-])OCC[N+](C)(C)C)OC [D-ET18OCH3, 1-O-octadecyl-2-O-methyl-glycerophosphocholine, reference compound] |  |  |  |  |  |  |  |  |  | − | doesn't elicit an aggregation response
